From patent publication US20130023504A1, “Modulation of Prostaglandin/Cyclooxygenase Metabolic Pathways” (HUNTER-FLEMING LIMITED, priority 2006, published 2013)

System: rat spinal cord motor neurones
Experiment: Neurite growth of spinal cord motor neurones in primary culture (anti β-Tubulin, In Cell Analyzer)
Type: cell-based
Method: Rat spinal motor neurones were prepared according to the method described by Martinou et al., 1992 (Martinou J C, Martinou I, Kato AC Cholinergic differentiation factor (CDF/LIF) promotes survival of isolated rat embryonic motoneurons in vitro. Neuron. 1992 April; 8(4):737-44). Briefly, pregnant female Wistar rats of 15 days gestation, were killed by cervical dislocation and the foetuses were removed from the uterus. Their spinal cords were removed and placed in ice-cold medium of Leibovitz (L15, Invitrogen, 11415-049) containing 1% of bovine serum albuminutes (BSA fatty acid free, Eurobio, Les Ulis, France, GXXBSA01-65). Meninges were carefully removed.
The spinal motor neurones were dissociated by trypsinisation for 20 minutes at 37° C. (trypsin EDTA 10× Invitrogen 15400054) diluted in PBS without calcium and magnesium (Invitrogen 2007-03). The reaction was stopped by the addition of Dulbecco Modified Eagle's Media (DMEM, Invitrogen 21969-035) containing DNase I grade II (0.1 mg/ml Roche diagnostic 104159) and 10% foetal calf serum (FCS, Invitrogen 10270098). The suspension was then mechanically dissociated by 3 passages through a 10 ml pipette. Cells were then centrifuged at 580 g for 10 minutes at room temperature. The pellet of dissociated cells was re-suspended in L15 medium and the resulting suspension was enriched in motor neurones by centrifugation at 180×g for 10 minutes at room temperature on a layer of BSA solution (3.5%) in L15 medium. The supernatant was discarded and the pellet was re-suspended in L15 medium supplemented with DNase I (1%). Then the suspension was layered over a cushion of Optiprep (d: 1.06 g/ml; Abcys, Paris, France; 1030061) and centrifuged at 335×g for 15 minutes at room temperature. The upper phase, containing the purified motor neurones, was collected, re-suspended with L15 medium and centrifuged at 800×g for 10 minutes at room temperature. The cell pellet was finally resuspended in a defined culture medium consisting of neurobasal medium supplemented with 2% B27, 2 mM L-Glutamine and Penicillin 50 Ul/ml-Streptomycin 50 μg/ml. Viable cells were counted in a Neubauer cytometer using the trypan blue exclusion test (Sigma T8154) then plated at 30 000 cells/well in 96 well-plates (pre-coated with poly-1-lysine; Nunclon, Invitrogen P5899) and cultured at 37° C. in a humidified air (95%) CO2 (5%) atmosphere.
The culture medium was changed into a defined culture medium after a 12 hours incubation period following the conditions described below:
BDNF 50 ng/ml and 10 ng/ml (in 0.1% DMSO)
After 6 hours, 12 hours and 24 hours of incubation with, cells were fixed for 5 minutes in an ethanol/acetic acid solution (95%/5%) at −20° C. and rinsed 3 times in PBS.
Motor neurones and sensory neurones were labelled by monoclonal anti β-Tubulin antibody (Sigma T8660) diluted at 1:400 in incubation solution (PBS with 5% of FCS and 0.1% of saponin, Sigma S-7900). This antibody specifically labels neurone cell bodies and neurites.
After 2 hours of incubation, the cells were washed in PBS and incubated with Alexa Fluor 488 goat anti mouse IgG (Molecular Probes A11001) diluted at 1:300 in incubation solution to reveal the 8-Tubulin III antibodies.
Analysis of the total length of neurones labelled with anti β-Tubulin antibodies (neurones) were carried out using In Cell Analyzer 1000 3.2.Workstation software.
The results were expressed in percentage compared to the vehicle. Comparison of groups was carried out using the unpaired T test.

CC12CCC3C(C1CCC2=O)[C@@H](O)C[C@H]1C[C@@H](O)CCC31C (stereo partly drawn) [Compound 7β-OH-EPIA, 7β-hydroxy-EPIAndrosterone]
Neurites length per field, % Vehicle (10^−4 M, 6 hours): 124% | Neurites length per field, Mean (10^−4 M, 6 hours): 315.9 μm | Neurites length per field, % Vehicle (10^−4 M, 12 hours): 142% | Neurites length per field, Mean (10^−4 M, 12 hours): 602.4 μm | Neurites length per field, % Vehicle (10^−4 M, 24 hours): 87% | Neurites length per field, Mean (10^−4 M, 24 hours): 188.4 μm | Neurites length per field, % Vehicle (10^−5 M, 6 hours): 115% | Neurites length per field, Mean (10^−5 M, 6 hours): 293.3 μm | Neurites length per field, % Vehicle (10^−5 M, 12 hours): 161% | Neurites length per field, Mean (10^−5 M, 12 hours): 680.9 μm | Neurites length per field, % Vehicle (10^−5 M, 24 hours): 93% | Neurites length per field, Mean (10^−5 M, 24 hours): 200.9 μm | Neurites length per field, % Vehicle (10^−6 M, 6 hours): 139% | Neurites length per field, Mean (10^−6 M, 6 hours): 354.5 μm | Neurites length per field, % Vehicle (10^−6 M, 12 hours): 137% | Neurites length per field, Mean (10^−6 M, 12 hours): 580.3 μm | Neurites length per field, % Vehicle (10^−6 M, 24 hours): 104% | Neurites length per field, Mean (10^−6 M, 24 hours): 224.8 μm | Neurites length per field, % Vehicle (10^−7 M, 6 hours): 138% | Neurites length per field, Mean (10^−7 M, 6 hours): 350.5 μm | Neurites length per field, % Vehicle (10^−7 M, 12 hours): 137% | Neurites length per field, Mean (10^−7 M, 12 hours): 956.7 μm | Neurites length per field, % Vehicle (10^−7 M, 24 hours): 126% | Neurites length per field, Mean (10^−7 M, 24 hours): 271.7 μm | Neurites length per field, % Vehicle (10^−8 M, 6 hours): 150% | Neurites length per field, Mean (10^−8 M, 6 hours): 382.4 μm | Neurites length per field, % Vehicle (10^−8 M, 12 hours): 179% | Neurites length per field, Mean (10^−8 M, 12 hours): 759.0 μm | Neurites length per field, % Vehicle (10^−8 M, 24 hours): 174% | Neurites length per field, Mean (10^−8 M, 24 hours): 374.6 μm | Neurites length per field, % Vehicle (10^−9 M, 6 hours): 188% | Neurites length per field, Mean (10^−9 M, 6 hours): 479.3 μm | Neurites length per field, % Vehicle (10^−9 M, 12 hours): 180% | Neurites length per field, Mean (10^−9 M, 12 hours): 764.9 μm | Neurites length per field, % Vehicle (10^−9 M, 24 hours): 123% | Neurites length per field, Mean (10^−9 M, 24 hours): 265.9 μm
